# Laboratory results as given in publication PMC10503797, “Allosteric modulator potentiates β2AR agonist–promoted bronchoprotection in asthma models” (The Journal of Clinical Investigation, 2023).
# Values joined by “and” are separate entries in the source; they are usually repeats but may differ in a detail not shown here. Equal entries are not always repeated. Where two headings read alike, the source gives them in different places.
# Assays:
# [1] = system: guinea pig lung slices; assay: Methacholine-induced airway constriction in guinea pig lung slices; type: cell-based; conditions: for MCh-induced airway constriction response (Figure 5D): Exp1-6; for EC50: Cavia porcellus
# Description: All curve fits were generated using the software program GraphPad Prism. Data are represented as mean ± SEM obtained from 6 guinea pigs.
# (§1) Precision-cut lung slices were prepared as described previously ([61], [62]). A 3% solution of low melting-point agarose (Gerbu Biotechnik GmbH) in ultrapure water was prepared by heating it a microwave until fully dissolved. […] After filling, the lungs were covered with ice for 30 minutes to solidify the agarose for slicing. […] Lung slices were cut at a thickness of 500 μm and washed several times with slicing buffer to remove debris and washout the isoproterenol. Slices were incubated overnight in a 60 mm dish in sterile incubation buffer: MEM composed of lung slice buffer supplemented with 0.5 mM sodium pyruvate, 1 mM glutamine (Gibco), MEM-amino acids mixture (1:50), MEM-vitamins mixture (1:100; Gibco), and penicillin-streptomycin (1:100; Gibco), pH = 7.2, at 37°C in a CO2- and humidity-controlled atmosphere.
# (§2) After washing the slices in medium, individual guinea pig lung slices were mechanically maintained with a Teflon ring with an inner diameter of 7 mm and covered with 1 mL of incubation buffer. […] Image acquisition software (NIS-Elements, Nikon) was used to quantify airway luminal area. Images of the airways were acquired every 2 seconds during the whole course of the experiment, starting 2 minutes before the addition of any agent to allow for baseline measurements of the airway caliber. For each methacholine or ovalbumin concentration, the maximal airway constriction was expressed as percentage of the initial (baseline) airway luminal area and plotted against that concentration.
# [2] = system: lung slices obtained from ovalbumin-sensitized guinea pigs; assay: Ovalbumin-induced airway constriction in lung slices from ovalbumin-sensitized guinea pigs; type: cell-based, guinea pig; conditions: Exp1-5
# Source text: All curve fits were generated using the software program GraphPad Prism. Data are represented as mean ± SEM of 4–5 guinea pigs (see Table 2 for statistical analyses).
# Outbred, male, specified pathogen-free Dunkin Hartley guinea pigs (Charles River Laboratory) weighing 200 to 400 g were used. The animals were housed in pairs under a 12-hour light/dark cycle in a temperature- and humidity-controlled room with food and tap water ad libitum. For studies in the guinea pig model of allergic asthma, animals were actively IgE-sensitized to ovalbumin by injecting a suspension containing 100 μg/mL ovalbumin and 100 mg/mL Al(OH)3 in saline. Each animal was injected with 1.0 mL of suspension: 0.5 mL was injected i.p. and 0.5 mL was divided over 7 s.c. sites close to lymph nodes in the neck, paws, and lumbar regions ([24]). Animals were euthanized at least 4 weeks after sensitization.
# as §1, §2
# [3] = 10 µM Fenoterol, -Log [MCh] 6.5
# [4] = 10 µM Fenoterol, -Log [MCh] 7.5
smiles,measurement,setting,value
"CC(Cc1ccc(O)cc1)NCC(O)c1cc(O)cc(O)c1 (centres unmarked) [Fenoterol, fenoterol]",airway area in MCh concentration-response (Figure 5A/5C),"[1]; 1 µM Fenoterol, -Log [MCh] 2.5",0.0
same,airway area in MCh concentration-response (Figure 5A/5C),"[1]; 1 µM Fenoterol, -Log [MCh] 3",0.0
same,airway area in MCh concentration-response (Figure 5A/5C),"[1]; 1 µM Fenoterol, -Log [MCh] 3.5",0.0
same,airway area in MCh concentration-response (Figure 5A/5C),"[1]; 1 µM Fenoterol, -Log [MCh] 4",0.0
same,airway area in MCh concentration-response (Figure 5A/5C),"[1]; 1 µM Fenoterol, -Log [MCh] 4.5",0.0
same,airway area in MCh concentration-response (Figure 5A/5C),"[1]; 1 µM Fenoterol, -Log [MCh] 7",100.3 and 103.0 and 66.3 and 92.9 and 96.6
same,airway area in MCh concentration-response (Figure 5A/5C),"[1]; 1 µM Fenoterol, -Log [MCh] 7.5",101.4 and 100.4 and 106.4 and 96.3
same,airway area in MCh concentration-response (Figure 5A/5C),"[1]; 1 µM Fenoterol, -Log [MCh] 8",99.1 and 105.8 and 109.5 and 112.9
same,airway area in MCh concentration-response (Figure 5A/5C),[1]; [3],59.0 and 89.4 and 82.6 and 83.1 and 91.0 and 74.6
same,MCh-induced airway constriction response (Figure 5D),[1]; [3],59.0 and 89.4 and 82.6 and 83.1 and 91.0 and 74.6
same,airway area in MCh concentration-response (Figure 5A/5C),"[1]; 10 µM Fenoterol, -Log [MCh] 7",77.1 and 109.6 and 109.2 and 101.3 and 91.9
same,MCh-induced airway constriction response (Figure 5D),"[1]; 10 µM Fenoterol, -Log [MCh] 7",77.1 and 109.6 and 109.2 and 101.3 and 91.9
same,airway area in MCh concentration-response (Figure 5A/5C),[1]; [4],94.2 and 110.7 and 102.7 and 105.1
same,MCh-induced airway constriction response (Figure 5D),[1]; [4],94.2 and 110.7 and 102.7 and 105.1
same,airway area in MCh concentration-response (Figure 5A/5C),"[1]; 10 µM Fenoterol, -Log [MCh] 8",106.3 and 110.5 and 104.8
same,MCh-induced airway constriction response (Figure 5D),"[1]; 10 µM Fenoterol, -Log [MCh] 8",106.3 and 110.5 and 104.8
same,MCh-induced airway constriction response (Figure 5D),"[1]; 100 µM Fenoterol, -Log [MCh] 6.5",82.5 and 88.6 and 98.9 and 92.2 and 82.0
same,MCh-induced airway constriction response (Figure 5D),"[1]; 100 µM Fenoterol, -Log [MCh] 7",98.1 and 101.4 and 98.8 and 109.0 and 104.9
same,MCh-induced airway constriction response (Figure 5D),"[1]; 100 µM Fenoterol, -Log [MCh] 7.5",106.4 and 100.0 and 110.6 and 99.9
same,MCh-induced airway constriction response (Figure 5D),"[1]; 100 µM Fenoterol, -Log [MCh] 8",101.0 and 105.4 and 99.3 and 99.7
same,EC50,"[1]; read-out: MCh EC50, 1 μM Fenoterol",0.37 ± 0.08 µM
same,EC50,"[1]; read-out: MCh EC50, 10 μM Fenoterol",0.56 ± 0.03 µM
same,EC50,"[1]; read-out: MCh EC50, 100 μM Fenoterol",1 ± 0.15 µM
same,OVA-induced airway constriction response (Figure 6),"[2]; 0.1 µM Fenoterol, [OVA] 0.001 ng/ml",100.0 and 98.0 and 100.9
same,OVA-induced airway constriction response (Figure 6),"[2]; 0.1 µM Fenoterol, [OVA] 0.01 ng/ml",100.0 and 105.5 and 96.2 and 100.8
same,OVA-induced airway constriction response (Figure 6),"[2]; 0.1 µM Fenoterol, [OVA] 0.1 ng/ml",100 and 99.0
same,OVA-induced airway constriction response (Figure 6),"[2]; 0.1 µM Fenoterol, [OVA] 1 ng/ml",100.0 and 109.4 and 99.5 and 95.4
same,OVA-induced airway constriction response (Figure 6),"[2]; 0.1 µM Fenoterol, [OVA] 10 ng/ml",109.1 and 98.9 and 69.5
same,OVA-induced airway constriction response (Figure 6),"[2]; 0.1 µM Fenoterol, [OVA] 100000 ng/ml",0.0
same,OVA-induced airway constriction response (Figure 6),"[2]; 0.1 µM Fenoterol, [OVA] 1000000 ng/ml",0.0
same,OVA-induced airway constriction response (Figure 6),"[2]; 1 µM Fenoterol, [OVA] 0.001 ng/ml",103.2 and 100 and 98.0
same,OVA-induced airway constriction response (Figure 6),"[2]; 1 µM Fenoterol, [OVA] 0.01 ng/ml",103.0 and 100.0 and 95.8
same,OVA-induced airway constriction response (Figure 6),"[2]; 1 µM Fenoterol, [OVA] 0.1 ng/ml",97.3 and 96.9 and 98.7 and 100
same,OVA-induced airway constriction response (Figure 6),"[2]; 1 µM Fenoterol, [OVA] 1 ng/ml",103.2 and 98.4 and 95.2 and 100.1 and 99.5
same,OVA-induced airway constriction response (Figure 6),"[2]; 1 µM Fenoterol, [OVA] 10 ng/ml",101.0 and 98.4 and 92.9 and 100.7 and 99.7
same,OVA-induced airway constriction response (Figure 6),"[2]; 1 µM Fenoterol, [OVA] 100 ng/ml",98.8 and 99.1 and 98.3 and 105.5 and 98.7
same,OVA-induced airway constriction response (Figure 6),"[2]; 1 µM Fenoterol, [OVA] 1000 ng/ml",95.3 and 96.8 and 97.2 and 98.0
same,OVA-induced airway constriction response (Figure 6),"[2]; 1 µM Fenoterol, [OVA] 10000 ng/ml",91.4 and 95.6 and 97.2 and 105.0 and 93.6
